US20190308933A1, “PHENYLAMIDINES AND THE USE THEREOF AS FUNGICIDES” (priority 2016, published 2019)
Like-named read-outs stand apart in the source and are kept apart here.

Key:
[1] = Log P measurement by HPLC on reversed phase columns (EEC directive 79/831 Annex V.A8); type: physicochemical; conditions: LC-UV; for chromatographic logP: reversed phase HPLC column
Method: [table] Measurement of Log P values was performed according to EEC directive 79/831 Annex V.A8 by HPLC (High Performance Liquid Chromatography) on reversed phase columns with the following methods: If more than one Log P value is available within the same method, all the values are given and separated by “+”. […] Lambda-max-values were determined using UV-spectra from 200 nm to 400 nm and the peak values of the chromatographic signals.

Phakopsora pachyrhizi = assay: In vivo preventive test on Phakopsora (soybeans); set-up: species or system Phakopsora pachyrhizi (soybean rust) on soybeans; conditions: 168 h, young soybean plants sprayed, 10 ppm of active ingredient, evaluated 7 days after inoculation, 0% = untreated control, 100% = no disease, read-out: efficacy
Method: Example: In Vivo Preventive Test on Phakopsora Test (Soybeans)
To produce a suitable preparation of active compound, 1 part by weight of active compound is mixed with the stated amounts of solvent and emulsifier, and the concentrate is diluted with water to the desired concentration.
To test for preventive activity, young plants are sprayed with the preparation of active compound at the stated rate of application. After the spray coating has dried on, the plants are inoculated with an aqueous spore suspension of the causal agent of soybean rust (Phakopsora pachyrhizi) and stay for 24 h without light in an incubation cabinet at approximately 24° C. and a relative atmospheric humidity of 95%.
The plants remain in the incubation cabinet at approximately 24° C. and a relative atmospheric humidity of approximately 80% and a day/night interval of 12 h.
The test is evaluated 7 days after the inoculation. 0% means an efficacy which corresponds to that of the untreated control, while an efficacy of 100% means that no disease is observed.

[2] = acidic range, 0.1% formic acid in water and acetonitrile as eluent (linear gradient 10% to 95% acetonitrile), read-out: LogP [a]
[3] = neutral range, 0.001 molar ammonium acetate solution in water and acetonitrile as eluent (linear gradient 10% to 95% acetonitrile), read-out: LogP [b]
[4] = acidic range, 0.1% formic acid in water and acetonitrile as eluent (linear gradient 10% to 95% acetonitrile)
[5] = neutral range, 0.001 molar ammonium acetate solution in water and acetonitrile as eluent (linear gradient 10% to 95% acetonitrile)

Row | chromatographic logP [1, 2] | chromatographic logP [1, 3] | LogP [a] [1, 4] | LogP [b] [1, 5] | Structure (SMILES) | pest or weed control at 10 ppm (Phakopsora pachyrhizi) [%]
1 | 1.41 | 3.86 |  |  | CCN(C)C=Nc1cc(C)c(Cc2ccccc2C#N)cc1Cl [Example 1, N′-[2-chloro-4-[(2-cyanophenyl)methyl]-5-methylphenyl]-N-ethyl-N-methylmethanimidamide] | 80 to 89
2 | 1.52 | 4.5 |  |  | CCN(C)C=Nc1cc(C)c(Cc2ccccc2F)cc1Cl [Example 2, N′-[2-chloro-4-[(2-fluorophenyl)methyl]-5-methylphenyl]-N-ethyl-N-methylmethanimidamide] | 90 to 100
3 | 1.49 |  |  |  | CCN(C)C=Nc1cc(C)c(Cc2ccccc2)cc1Cl [Example 3, N′-(4-benzyl-2-chloro-5-methylphenyl)-N-ethyl-N-methylmethanimidamide] | 90 to 100
4 | 1.38 | 4.38 |  |  | CCN(C)C=Nc1cc(Cl)c(Cc2ccccc2C#N)cc1C [Example 4, N′-[5-chloro-4-[(2-cyanophenyl)methyl]-2-methylphenyl]-N-ethyl-N-methylmethanimidamide] | 
5 |  |  | 1.58[a]; | 2.99[b] | CCN(C)C=Nc1cc(Cl)c(Cc2ccccc2F)cc1C [Example 5] | 
6 | 1.72 | 5.16 |  |  | CCN(C)C=Nc1cc(Cl)c(Cc2ccccc2)cc1C [Example 6, N′-(4-benzyl-5-chloro-2-methylphenyl)-N-ethyl-N-methylmethanimidamide] | 90 to 100
7 | 1.92 | 5.16 |  |  | CCN(C)C=Nc1cc(C)c(Cc2ccccc2Cl)cc1C [Example 7, N′-[4-[(2-chlorophenyl)methyl]-2,5-dimethylphenyl]-N-ethyl-N-methylmethanimidamide] | 
8 | 1.47 | 4.15 |  |  | CCN(C)C=Nc1cc(C)c(Cc2ccccc2C#N)cc1C [Example 8, N′-[4-[(2-cyanophenyl)methyl]-2,5-dimethylphenyl]-N-ethyl-N-methylmethanimidamide] | 90 to 100
9 | 1.79 | 4.86 |  |  | CCN(C)C=Nc1cc(C)c(Cc2ccc(F)cc2F)cc1C [Example 9, N′-[4-[(2,4-difluorophenyl)methyl]-2,5-dimethylphenyl]-N-ethyl-N-methylmethanimidamide] | 90 to 100
10 | 1.6 | 4.87 |  |  | CCN(C)C=Nc1cc(C)c(Cc2ccccc2F)cc1C [Example 10, N-ethyl-N′-[4-[(2-fluorophenyl)methyl]-2,5-dimethylphenyl]-N-methylmethanimidamide] | 90 to 100
11 | 1.58 | 4.9 |  |  | CCN(C)C=Nc1cc(C)c(Cc2ccccc2)cc1C [Example 11, N′-(4-benzyl-2,5-dimethylphenyl)-N-ethyl-N-methylmethanimidamide] | 90 to 100
12 | 1.92 | 5.31 |  |  | Cc1cc(N=CN(C)C(C)C)c(C)cc1Cc1ccc(F)cc1F [Example 12, N′-[4-[(2,4-difluorophenyl)methyl]-2,5-dimethylphenyl]-N-isopropyl-N-methylmethanimidamide] | 90 to 100
13 | 1.85 |  |  |  | CCN(C)C=Nc1cc(C)c(C2(c3ccccc3)CC2)cc1C [Example 13, N′-[2,5-dimethyl-4-(1-phenylcyclopropyl)phenyl]-N-ethyl-N-methylmethanimidamide] | 90 to 100
14 | 1.63 |  |  |  | CCN(C)C=Nc1cc(C)c(C2(c3ccccc3)CC2(F)F)cc1C (stereo not drawn) [Example 14, N′-[4-(2,2-difluoro-1-phenylcyclopropyl)-2,5-dimethylphenyl]-N-ethyl-N-methylmethanimidamide] | 90 to 100
15 | 1.83 |  |  |  | CCN(C)C=Nc1cc(C)c(C2(c3ccccc3)CC2(Cl)Cl)cc1C (stereo not drawn) [Example 15, N′-[4-(2,2-dichloro-1-phenylcyclopropyl)-2,5-dimethylphenyl]-N-ethyl-N-methylmethanimidamide] | 
16 | 1.89 |  |  |  | CCN(C)C=Nc1cc(C)c(C2(c3ccccc3)CC2(Br)Br)cc1C (stereo not drawn) [Example 16, N′-[4-(2,2-dibromo-1-phenylcyclopropyl)-2,5-dimethylphenyl]-N-ethyl-N-methylmethanimidamide] | 

Row | chromatographic logP [1, 2] | chromatographic logP [1, 3] | LogP [a] [1, 4] | LogP [b] [1, 5] | Structure (SMILES) | pest or weed control at 10 ppm (Phakopsora pachyrhizi) [%]
17 | 1.58 | 5.32 |  |  | CCN(C)C=Nc1cc(Cl)c(C(C)c2ccccc2)cc1C (stereo not drawn) [Example 18, N′-[5-chloro-2-methyl-4-(1-phenylethyl)phenyl]-N-ethyl-N-methylmethanimidamide] | 90 to 100
18 | 1.58 | 5.24 |  |  | C=C(c1ccccc1)c1cc(C)c(N=CN(C)CC)cc1Cl [Example 19, N′-[5-chloro-2-methyl-4-(1-phenylethen-1-yl)phenyl]-N-ethyl-N-methylmethanimidamide] | 80 to 89
19 | 2 | 4.62 |  |  | CCN(C)C=Nc1cc(F)c(Cc2ccccc2)cc1C [Example 20, N′-(4-benzyl-5-fluoro-2-methylphenyl)-N-ethyl-N-methylmethanimidamide] | 90 to 100
20 | 1.86 | 4.6 |  |  | CCN(C)C=Nc1cc(C)c(Cc2ccc(F)cc2F)cc1Cl [Example 21, N′-[2-chloro-4-[(2,4-difluorophenyl)methyl]-5-methylphenyl]-N-ethyl-N-methylmethanimidamide] | 90 to 100
21 | 1.63 |  |  |  | CCN(C)C=Nc1cc(Cl)c(Cc2ccc(F)cc2F)cc1C [Example 22, N′-[5-chloro-4-[(2,4-difluorophenyl)methyl]-2-methylphenyl]-N-ethyl-N-methylmethanimidamide] | 90 to 100
22 | 1.66 | 5.54 |  |  | CCN(C)C=Nc1cc(Cl)c(Cc2ccccc2C)cc1C [Example 23, N′-[5-chloro-2-methyl-4-[(2-methylphenyl)methyl]phenyl]-N-ethyl-N-methylmethanimidamide] | 90 to 100
23 | 2.05 | 6.02 |  |  | CCN(C)C=Nc1cc(Cl)c(Cc2ccccc2-c2ccccc2)cc1C [Example 25, N′-[5-chloro-2-methyl-4-[(2-phenylphenyl)methyl]phenyl]-N-ethyl-N-methylmethanimidamide] | 
24 | 1.53 | 4.45 |  |  | CCN(C)C=Nc1cc(C)c(Cc2ccccc2OC)cc1Cl [Example 26, N′-[2-chloro-4-[(2-methoxyphenyl)methyl]-5-methylphenyl]-N-ethyl-N-methylmethanimidamide] | 
25 | 1.61 | 4.7 |  |  | CCN(C)C=Nc1cc(C)c(C(C)c2ccccc2)cc1Cl (stereo not drawn) [Example 27, N′-[2-chloro-5-methyl-4-(1-phenylethyl)phenyl]-N-ethyl-N-methylmethanimidamide] | 
26 | 1.63 | 4.93 |  |  | CCN(C)C=Nc1cc(C)c(Cc2ccccc2Cl)cc1Cl [Example 28, N′-[2-chloro-4-[(2-chlorophenyl)methyl]-5-methylphenyl]-N-ethyl-N-methylmethanimidamide] | 
27 |  |  | 1.58^[a]; | 4.95^[b] | CCN(C)C=Nc1cc(Cl)c(Cc2ccccc2OC)cc1C [Example 29] | 
28 | 1.66 | 4.93 |  |  | C=C(c1ccccc1)c1cc(Cl)c(N=CN(C)CC)cc1C [Example 31, N′-[2-chloro-5-methyl-4-(1-phenylethen-1-yl)phenyl]-N-ethyl-N-methylmethanimidamide] | 
29 | 1.46 | 4.34 |  |  | CCN(C)C=Nc1cc(F)c(Cc2ccccc2OC)cc1C [Example 32, N-ethyl-N′-[5-fluoro-4-[(2-methoxyphenyl)methyl]-2-methylphenyl]-N-methylmethanimidamide] | 
30 | 1.41 | 4.37 |  |  | CCN(C)C=Nc1cc(F)c(Cc2ccccc2F)cc1C [Example 33, N-ethyl-N′-[5-fluoro-4-[(2-fluorophenyl)methyl]-2-methylphenyl]-N-methylmethanimidamide] | 
31 | 1.55 | 4.63 |  |  | CCN(C)C=Nc1cc(F)c(C(C)c2ccccc2)cc1C (stereo not drawn) [Example 34, N-ethyl-N′-[5-fluoro-2-methyl-4-(1-phenylethyl)phenyl]-N-methylmethanimidamide] | 
32 | 1.52 | 4.54 |  |  | CCN(C)C=Nc1cc(F)c(Cc2ccc(F)cc2F)cc1C [Example 35, N′-[4-[(2,4-difluorophenyl)methyl]-5-fluoro-2-methylphenyl]-N-ethyl-N-methylmethanimidamide] | 
